Measurements taken from patent publication US11617708B2, “Cosmetic composition capable of strengthening epidermal tight junctions for the prevention and/or treatment of atopic dermatitis” (NAOS INSTITUTE OF LIFE SCIENCE, priority 2020, dated 2023).

Test system: claudin-1
Assay: Expression of claudin-1 by in situ immunolabelling in an in vitro cell model of atopic dermatitis (calcium-differentiated keratinocytes inhibited by alarmins)
Type: cell-based, human
Procedure: • cell type: normal human epidermal keratinocytes (NHEK; reference: Bioalternatives K34 1), used at 3rd passage—culture conditions: 37° C., 5% CO2 • culture medium: Keratinocyte-SFM complemented with Epidermal Growth Factor (or EGF) at a concentration of 0.25 ng/mL, pituitary extract (PE) at a concentration of 25 μg/mL and gentamycin at a concentration of 25 μg/mL • assay medium used for this example: Keratinocyte-SFM complemented with gentamycin at a concentration of 25 μg/mL. […]
For each condition, the analysis was carried out from 30 image quantifications (n=30) except for the control conditions produced from 60 image quantifications (n=60). A first evaluation of the results was carried out by taking all of the quantifications into account, then a second solely with the results with replicated cultures, i.e. with 3 replications (n=3), except for the control conditions which were carried out with 6 replications (n=6). […]
Labelling was quantified by measuring the intensity of fluorescence of the proteins with respect to the total number of cells identified by staining with bis-benzimide (integration of digital data by the Developer Toolbox 1.5 software, GE Health Care).
The intergroup comparisons were carried out with the aid of the bilateral unpaired Student t-assay. […] However, for n<5, the calculated data were provided by way of indication only. […]

Structure (SMILES) | expression of claudin-1 after differentiation with CaCl2 (NHEK, CaCl2 0.75 mM, without alarmins, versus not stimulated/not differentiated control) | effect on the expression of claudin-1 (% with respect to T+, inhibited control = 100%) (NHEK differentiated with CaCl2 0.75 mM, compounds 1 h before alarmins (histamine 50 μM, IL-33 100 ng/mL, IL-1β 100 ng/mL), 72 h, arginine 0.02-0.2%, glycosylceramides 0.0003-0.003%, FIG. 1)
[Ca+2].[Cl-].[Cl-] [CaCl2] | induced an increase in the expression of the analysed tight junctions protein (claudin-1) | 
N=C(N)NCCC[C@H](N)C(=O)O [arginine] |  | significantly reversed the inhibiting effect of the mixture of alarmins on the expression of claudin-1
